{"source": "patent US20060167094A1", "about": "“Satiety agent” (priority 2005, published 2006)", "key": {"[1]": {"settings": "at similar concentrations; cited from earlier work"}, "[2]": {"test_system": "pancreatic bicarbonate secretion", "settings": "luminal fatty acid; cited from earlier work"}, "[3]": {"assay": "Tolerability of intraduodenal fatty acid infusion (pilot study and randomized study)", "assay_type": "in vivo, human", "description": "Fatty acid solutions were prepared using 5.3 g of commercially available food grade saturated free fatty acids, lauric (C12:0) and decanoic (C10:0) acid (Sigma-Aldrich; Milwaukee, Wis.). C12 was dissolved in 0.89 g NaOH (Sigma-Aldrich; St. Louis, Mo.) and distilled water to a total volume of 250 ml. C12 was maintained in solution by heating it to 37° C., with a resulting pH of 8.2. C10 was also dissolved in NaOH (1.21 g), and the pH of the C10 and control (distilled water) solutions was adjusted to 8.2 by the addition of NaOH. All solutions were prepared on the morning of the study and infused at 37° C. […] We chose to infuse the fatty acid and control solutions intraduodenally to ensure uniformity of doses across subjects and study days.\nHowever, during the C12 infusion, the first subject tested reported severe nausea and only tolerated the infusion for 30 min. A second subject, who again reported severe nausea, tolerated the infusion for 60 min."}, "[4]": {"assay": "Antropyloroduodenal (APD) pressures by manometry during intraduodenal infusion", "assay_type": "in vivo, human", "excerpt": "Subjects attended the laboratory at 0830 after fasting from 2200 the previous night from both solids and liquids. They were intubated with a 17-channel manometric catheter (Dentsleeve; Adelaide, South Australia, Australia) that was inserted through an anesthetized nostril and allowed to pass through the stomach and into the duodenum by peristalsis. The manometric catheter, which consisted of 16 sideholes spaced at 1.5-cm intervals, measures pressures in the antrum, pylorus, and duodenum. Six side holes (channels 1-6) were positioned in the antrum, a 4.5-cm sleeve sensor (channel 7), with two channels present on the back of the sleeve (channels 8 and 9), designed to measure pressure waves occurring over the entire pyloric region, were positioned across the pylorus, and seven channels were positioned in the duodenum (channels 10-16). An additional channel, used for intraduodenal infusions, was positioned 11.75 cm distal to the end of the sleeve sensor. The correct positioning of the catheter, so the sleeve sensor straddled the pylorus, was maintained by continuous measurement of the transmucosal potential difference (TMPD) between the most distal antral channel (channel 6; approximately −40 mV) and the most proximal duodenal channel (channel 10; ˜0 mV). For this purpose, an intravenous cannula filled with sterile saline was placed subcutaneously in the left forearm and used as a reference electrode. All manometric channels were perfused with degassed, distilled water except for the two TMPD channels, which were perfused with degassed 0.9% saline at 0.15 ml/min. An intravenous cannula was also placed into a right forearm vein for blood sampling to measure plasma CCK and GLP-1 concentrations.\n(§1) Once the catheter was positioned correctly, fasting motility was monitored until the occurrence of phase III of the interdigestive migrating motor complex (MMC). Immediately after the cessation of phase III activity [at time t=−15 min], a baseline venous blood sample was taken, and a visual analog scale questionnaire (VAS) (see Measurements), assessing appetite-related sensations, was administered. At t=0 min (i.e., during phase I of the MMC), the duodenal infusion of 1) C12, 2) C10, or 3) control solution was commenced and continued for 90 min. APD pressures were monitored throughout the infusion period; blood samples were taken, and the VAS administered every 15 min from t=0 min until t=90 min. At t=90 min, the infusion was terminated, and the subject was immediately extubated and offered a cold buffet-style meal, the composition of which is provided in Table 1. The amount of food offered was in excess of what the subject was expected to consume. The subject was given 30 min (i.e., t=90 min to t=120 min) to consume the meal and instructed to eat until comfortably full. After ingestion of the meal, the subject was monitored for a further 30 min, a further VAS was completed, and blood samples were taken at t=120 and 150 min. The intravenous cannula was then removed, and the subject was allowed to leave the laboratory.\nAPD pressures. Manometric pressures were digitized, recorded on a computer-based system (PowerMac 7100/75, Apple Computers; Cupertino, Calif.) running commercially available software (HAD, Associate Prof. G S Hebbard, Melbourne, Australia) written in LabView 3.1.1 (National Instruments), and stored for subsequent analysis. APD pressures were analysed for 1) number and amplitude of isolated pyloric pressure waves (IPPWs) and pressure waves (PWs) in the antrum and duodenum and 2) number and length of PW sequences (PWSs) in the duodenum using custom-written software (Gastrointestinal Motility Unit; Utrecht, The Netherlands) modified to our requirements. […]"}, "plasma GLP-1": {"test_system": "plasma GLP-1", "assay": "Plasma GLP-1 concentrations by radioimmunoassay", "assay_type": "in vivo, human", "description": "as §1\n(§2) Venous blood samples (10 ml) were collected in ice-chilled EDTA-treated tubes containing 400 kIU aprotinin (Trasylol, Bayer Australia) per millilitre of blood. Plasma was separated by centrifugation (3,200 rpm, 15 min, 4° C.) within 30 min of collection and stored at −70° C. until assayed.\nPlasma GLP-1 concentrations (in pmol/l) were measured by radioimmunoassay using an adaptation of a previously published method (4) Antibody, supplied by Prof. […] It is likely that this antibody also reacts with the degraded form of GLP-1(9-36) amide. Intra-assay CV was 17% and interassay CV was 18%, with a sensitivity of 1.5 pmol/l."}, "CCK secretion": {"test_system": "CCK secretion", "settings": "gastric infusion, humans; cited from earlier work"}, "plasma CCK": {"test_system": "plasma CCK", "assay": "Plasma CCK concentrations by radioimmunoassay", "assay_type": "in vivo, human", "description": "as §1, §2\nPlasma CCK concentrations (in pmol/l) were determined after ethanol extraction using a previously described radioimmunoassay (3). A commercially available antibody (C258, Lot 105H4852, Sigma Chemical) raised in rabbits against the synthetic sulfated CCK-8 was employed. […] The intra-assay coefficient of variation (CV) was 9% and the interassay CV was 27%, with a sensitivity of 2.5 pmol/l. The sensitivity of the assay relates to its reliable detection limit."}, "[5]": {"settings": "90 min infusion, compared with control"}}, "note": "“And” between values parts separate entries of the source, which are not always exact repeats. Equal entries are not always repeated."}
{"smiles": "CCCCCCCCCCCC(=O)O", "note": "[C12, lauric acid]", "values": [{"measurement": "cytotoxicity relative to C18:1", "setting": "[1]", "result": "half as cytotoxic as C18:1"}, {"measurement": "secretion of pancreatic bicarbonate relative to C10, C16, C18:0, C18:1 and C18:2", "setting": "[2]", "result": "more than twice as much"}, {"measurement": "time the infusion was tolerated", "setting": "[3]; pilot study, 0.75 kcal/min (n=1)", "result": "~60", "unit": "min"}, {"measurement": "time the infusion was tolerated", "setting": "[3]; pilot study, 1 kcal/min (n=1)", "result": "~60", "unit": "min"}, {"measurement": "adverse effect limiting the infusion", "setting": "[3]; pilot study, 1 kcal/min and 0.75 kcal/min", "result": "severe nausea and vomiting"}, {"measurement": "adverse effect limiting the infusion", "setting": "[3]; pilot study, 1.5 kcal/min", "result": "severe nausea"}, {"measurement": "time the infusion was tolerated", "setting": "[3]; pilot study, 1.5 kcal/min, individual subjects", "result": "30 min and 60 min"}, {"measurement": "time the infusion was tolerated", "setting": "[3]; randomized study, 0.375 kcal/min, one subject with severe nausea", "result": 30, "unit": "min"}, {"measurement": "basal pyloric pressure (tone)", "setting": "[4]; [5]", "result": "increased basal pyloric pressure"}, {"measurement": "number of antral PWs", "setting": "[4]; [5]", "result": "decreased the number of antral PWs compared with control"}, {"measurement": "number of duodenal PWs", "setting": "[4]; [5]", "result": "decreased the number of duodenal PWs"}, {"measurement": "number of IPPWs compared with control", "setting": "[4]; C12: 0-15, 15-30 and 30-45 min, C10: 0-15 min", "result": "increased the number of IPPWs"}, {"measurement": "length of antegrade peristalsis in the duodenum", "setting": "[4]; C12 infusion", "result": "did not abolish but did shorten"}, {"measurement": "onset of gastrointestinal effects", "setting": "[4]; C12 infusion 0.375 kcal/min", "result": "~15", "unit": "min"}, {"measurement": "amplitude of IPPWs compared with control", "setting": "[4]; between 0-15 and 15-30 min", "result": "increased the amplitude of IPPWs compared with control"}, {"measurement": "number of IPPWs compared with C10", "setting": "[4]; between 15-30 and 30-45 min", "result": "increased the number of IPPWs"}, {"measurement": "amplitude of IPPWs compared with control", "setting": "[4]; between 60 and 75 min", "result": "decreased the amplitude of IPPWs"}, {"measurement": "amplitude of IPPWs compared with C10", "setting": "[4]; between 75 and 90 min", "result": "decreased the amplitude of IPPWs"}, {"measurement": "number of duodenal PWSs travelling over three channels (3 to <4.5 cm)", "setting": "[4]; compared with C10", "result": "decreased the number of waves that travelled over three channels compared with C10"}, {"measurement": "amplitude of antral pressures", "setting": "[4]; compared with both C10 and control infusions, trend P=0.080", "result": "tended to be lower"}, {"measurement": "number of duodenal PWSs travelling over six channels (7.5 to <9 cm)", "setting": "[4]; compared with control", "result": "decreased the number of waves that travelled over six channels compared with control"}, {"measurement": "number of duodenal PWSs travelling over three channels (3 to <4.5 cm)", "setting": "[4]; compared with control", "result": "no difference between C12 or C10 and control"}, {"measurement": "number of duodenal PWSs travelling over two channels (1.5 to <3 cm)", "setting": "[4]; compared with control", "result": "decreased the number of waves that travelled over two channels compared with control"}, {"measurement": "number of waves that travelled over nine channels", "setting": "[4]; compared with control", "result": "decreased the number of waves that travelled over nine channels"}, {"measurement": "motor pattern on visual inspection of pressure traces", "setting": "[4]; intraduodenal infusion 0.375 kcal/min", "result": "antral and duodenal PWs were inhibited and pyloric pressures stimulated"}, {"measurement": "delay until plasma GLP-1 concentrations rose", "setting": "plasma GLP-1; after the start of infusion", "result": 30, "unit": "min"}, {"measurement": "plasma GLP-1 concentrations compared with control", "setting": "plasma GLP-1; during infusion, C12 effect from 30 to 90 min", "result": "increased plasma GLP-1"}, {"measurement": "plasma GLP-1 concentrations compared with C10", "setting": "plasma GLP-1; from 45 to 90 min", "result": "increased plasma GLP-1"}, {"measurement": "plasma GLP-1 concentrations after meal ingestion", "setting": "plasma GLP-1; t=120 and 150 min, compared with control", "result": "higher after the C12 infusion compared with both control"}, {"measurement": "GLP-1 level higher than after ingestion of the buffet meal after the control infusion", "setting": "plasma GLP-1; versus level after ingestion of ~4,528 kJ", "result": 40, "unit": "%"}, {"measurement": "stimulation of CCK secretion", "setting": "CCK secretion", "result": "reported to stimulate CCK secretion"}, {"measurement": "plasma CCK concentrations", "setting": "plasma CCK; during 90 min infusion, compared with control", "result": "increased plasma CCK compared with control"}, {"measurement": "time of rapid rise in plasma CCK", "setting": "plasma CCK; from start of infusion, then plateaued", "result": "≤ 15", "unit": "min"}, {"measurement": "magnitude of the rise in plasma CCK", "setting": "plasma CCK; in the first 15 min of infusion, 0.375 kcal/min", "result": "~12", "unit": "pmol/L"}, {"measurement": "plasma CCK level relative to postprandial level", "setting": "plasma CCK; versus levels after the buffet meal following control infusion", "result": "comparable to postprandial levels after the control infusion"}]}
